From patent US10870647B2, “Imidazopyridine derivative, method for preparing same, and pharmaceutical composition containing same as active ingredient for preventing or treating cancer” (DAEGU-GYEONGBUK MEDICAL INNOVATION FOUNDATION, priority 2016, dated 2020) come the findings set out here.

Where two headings read alike, the source gives them in different places.

Assay in all cases: Kinase selectivity, scanMAX Kinase assay panel (DiscoverX), % control at 1 uM
Common to all, as to assay type: binding

Assay [1] addresses T1, scanMAX Kinase assay panel (Homo sapiens, UniProt O94768).
T1 construct: purchased DiscoverX
T1 sequence (O94768 1-372): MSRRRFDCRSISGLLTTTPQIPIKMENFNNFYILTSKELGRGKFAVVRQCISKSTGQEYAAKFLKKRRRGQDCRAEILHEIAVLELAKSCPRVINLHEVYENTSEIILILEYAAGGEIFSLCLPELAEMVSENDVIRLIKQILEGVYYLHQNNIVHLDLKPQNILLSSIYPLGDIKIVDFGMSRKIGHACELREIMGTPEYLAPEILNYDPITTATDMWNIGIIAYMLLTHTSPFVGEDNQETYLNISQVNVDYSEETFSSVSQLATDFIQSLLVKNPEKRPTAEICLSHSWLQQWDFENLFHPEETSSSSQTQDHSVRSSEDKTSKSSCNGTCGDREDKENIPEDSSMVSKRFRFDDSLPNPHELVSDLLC
The note with it: DRAK2; 1 uM; read-out: Percent Control (%). The method in brief:
(§1)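 A single concentration of 1 uM, in DMSO, is applied across the kinase panel. Activity against an individual enzyme is assigned where % control is less than 35.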

In assay [2] the target is T2, scanMAX Kinase assay panel (Homo sapiens, UniProt P42336, E542K).
T2 construct: purchased DiscoverX
T2 sequence (P42336 whole entry E542K): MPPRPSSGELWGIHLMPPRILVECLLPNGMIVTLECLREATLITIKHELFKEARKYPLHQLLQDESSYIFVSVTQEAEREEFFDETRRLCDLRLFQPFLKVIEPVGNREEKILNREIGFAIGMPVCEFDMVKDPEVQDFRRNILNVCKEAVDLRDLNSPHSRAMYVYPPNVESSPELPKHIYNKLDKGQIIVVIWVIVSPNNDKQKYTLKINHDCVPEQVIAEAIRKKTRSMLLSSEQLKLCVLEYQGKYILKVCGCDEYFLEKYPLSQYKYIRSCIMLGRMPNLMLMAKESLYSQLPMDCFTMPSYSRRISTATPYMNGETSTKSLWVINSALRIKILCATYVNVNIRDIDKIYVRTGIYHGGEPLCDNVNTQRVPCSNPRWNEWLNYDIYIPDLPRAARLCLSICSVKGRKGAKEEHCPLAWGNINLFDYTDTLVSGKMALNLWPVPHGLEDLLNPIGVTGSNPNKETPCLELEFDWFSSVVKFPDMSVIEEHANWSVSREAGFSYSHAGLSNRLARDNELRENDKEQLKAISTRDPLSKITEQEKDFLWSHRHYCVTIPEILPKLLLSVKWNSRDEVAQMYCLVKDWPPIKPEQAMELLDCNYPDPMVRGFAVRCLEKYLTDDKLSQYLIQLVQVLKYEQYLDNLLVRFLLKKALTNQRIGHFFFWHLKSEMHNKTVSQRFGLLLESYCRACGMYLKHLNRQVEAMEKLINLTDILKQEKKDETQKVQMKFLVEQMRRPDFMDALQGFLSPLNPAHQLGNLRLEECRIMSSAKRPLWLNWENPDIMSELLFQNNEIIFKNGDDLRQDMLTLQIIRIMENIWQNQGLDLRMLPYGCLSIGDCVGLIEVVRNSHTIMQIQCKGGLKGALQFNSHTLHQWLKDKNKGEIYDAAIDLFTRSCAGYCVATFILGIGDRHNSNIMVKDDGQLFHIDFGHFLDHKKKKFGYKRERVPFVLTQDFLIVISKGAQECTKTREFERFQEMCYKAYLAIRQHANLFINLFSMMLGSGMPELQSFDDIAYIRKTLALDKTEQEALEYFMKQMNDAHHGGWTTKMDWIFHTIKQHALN
The following applies: PIK3CA (E542K); 1 uM; read-out: Percent Control (%). The method in brief:
as §1

Assay [3] has as its target T3, scanMAX Kinase assay panel (Homo sapiens, UniProt P35590).
T3 construct: purchased DiscoverX
The following applies: TIE1; 1 uM; read-out: Percent Control (%). The method in brief: as §1

For assay [4], the target named is T4, scanMAX Kinase assay panel (Homo sapiens, UniProt P14616).
T4 construct: purchased DiscoverX
T4 sequence (P14616 27-1297): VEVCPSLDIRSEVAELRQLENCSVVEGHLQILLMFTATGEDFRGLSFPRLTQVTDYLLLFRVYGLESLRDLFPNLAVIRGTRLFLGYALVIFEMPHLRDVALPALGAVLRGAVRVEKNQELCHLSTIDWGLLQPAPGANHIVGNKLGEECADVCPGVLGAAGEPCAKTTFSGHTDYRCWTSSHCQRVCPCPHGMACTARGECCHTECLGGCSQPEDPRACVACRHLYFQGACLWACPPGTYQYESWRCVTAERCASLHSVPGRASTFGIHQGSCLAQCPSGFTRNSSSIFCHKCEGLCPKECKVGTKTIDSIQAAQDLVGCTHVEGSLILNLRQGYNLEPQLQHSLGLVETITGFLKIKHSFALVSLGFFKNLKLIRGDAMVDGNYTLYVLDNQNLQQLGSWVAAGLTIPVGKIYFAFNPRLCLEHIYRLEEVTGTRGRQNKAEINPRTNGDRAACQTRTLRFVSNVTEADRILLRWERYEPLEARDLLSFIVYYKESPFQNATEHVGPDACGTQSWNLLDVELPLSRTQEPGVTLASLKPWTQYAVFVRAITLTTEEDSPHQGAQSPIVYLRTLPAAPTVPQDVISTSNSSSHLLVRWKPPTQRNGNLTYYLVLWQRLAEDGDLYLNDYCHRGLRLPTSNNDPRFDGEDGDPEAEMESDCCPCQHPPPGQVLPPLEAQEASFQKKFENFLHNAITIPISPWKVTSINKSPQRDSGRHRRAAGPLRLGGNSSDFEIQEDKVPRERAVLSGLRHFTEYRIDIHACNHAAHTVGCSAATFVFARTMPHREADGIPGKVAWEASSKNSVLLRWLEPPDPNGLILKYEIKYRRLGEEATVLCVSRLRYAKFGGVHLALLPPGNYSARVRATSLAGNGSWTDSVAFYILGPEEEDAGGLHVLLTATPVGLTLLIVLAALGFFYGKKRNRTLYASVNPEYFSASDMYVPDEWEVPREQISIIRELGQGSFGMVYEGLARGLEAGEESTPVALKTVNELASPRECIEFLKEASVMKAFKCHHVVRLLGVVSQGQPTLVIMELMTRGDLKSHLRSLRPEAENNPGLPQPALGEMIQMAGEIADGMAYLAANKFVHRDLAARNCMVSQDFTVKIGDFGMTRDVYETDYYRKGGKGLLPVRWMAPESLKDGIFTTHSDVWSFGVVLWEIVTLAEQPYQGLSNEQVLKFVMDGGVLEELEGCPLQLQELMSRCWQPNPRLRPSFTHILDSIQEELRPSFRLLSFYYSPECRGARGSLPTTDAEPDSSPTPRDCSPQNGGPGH
The note with it: INSRR; 1 uM; read-out: Percent Control (%). The method in brief:
as §1

Assay [5] addresses T5, scanMAX Kinase assay panel (Homo sapiens, UniProt P00519, H396P).
T5 construct: purchased DiscoverX
The note with it: 1 uM, read-out: Percent Control (%). The method in brief:
as §1

For assay [6], the target named is T6, scanMAX Kinase assay panel (Homo sapiens, UniProt Q13523).
T6 construct: purchased DiscoverX
T6 sequence (Q13523 whole entry): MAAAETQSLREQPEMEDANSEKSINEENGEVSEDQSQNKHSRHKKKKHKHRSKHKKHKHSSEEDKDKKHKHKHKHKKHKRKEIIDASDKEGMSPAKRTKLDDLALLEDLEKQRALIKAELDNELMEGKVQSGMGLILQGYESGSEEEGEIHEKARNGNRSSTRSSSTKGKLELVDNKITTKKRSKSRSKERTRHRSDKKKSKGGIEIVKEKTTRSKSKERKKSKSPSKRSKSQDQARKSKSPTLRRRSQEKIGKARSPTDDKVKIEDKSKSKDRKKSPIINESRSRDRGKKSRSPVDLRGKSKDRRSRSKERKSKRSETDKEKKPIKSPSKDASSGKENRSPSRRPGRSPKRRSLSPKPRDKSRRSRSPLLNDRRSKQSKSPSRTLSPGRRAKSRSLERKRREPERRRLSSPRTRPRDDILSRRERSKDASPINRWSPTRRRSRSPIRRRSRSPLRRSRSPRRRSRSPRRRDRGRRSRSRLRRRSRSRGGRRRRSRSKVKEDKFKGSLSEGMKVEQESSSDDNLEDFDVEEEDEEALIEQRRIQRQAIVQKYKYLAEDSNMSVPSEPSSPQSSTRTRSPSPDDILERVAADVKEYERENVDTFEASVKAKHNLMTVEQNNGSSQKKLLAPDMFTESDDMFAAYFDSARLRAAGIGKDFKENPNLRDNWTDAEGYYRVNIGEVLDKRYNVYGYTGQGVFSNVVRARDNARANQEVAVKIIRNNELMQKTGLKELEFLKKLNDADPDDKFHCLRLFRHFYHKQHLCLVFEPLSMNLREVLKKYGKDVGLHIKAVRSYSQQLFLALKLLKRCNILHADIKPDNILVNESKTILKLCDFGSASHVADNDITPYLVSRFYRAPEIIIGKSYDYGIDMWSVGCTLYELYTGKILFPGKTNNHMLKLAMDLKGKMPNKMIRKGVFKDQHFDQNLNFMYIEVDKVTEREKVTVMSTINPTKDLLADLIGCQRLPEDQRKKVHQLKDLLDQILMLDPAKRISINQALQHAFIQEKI
The following applies: PRP4; 1 uM; read-out: Percent Control (%). The method in brief: as §1

The target in assay [7] is T7, scanMAX Kinase assay panel (Homo sapiens, UniProt Q07912).
T7 construct: purchased DiscoverX
T7 sequence (Q07912 whole entry): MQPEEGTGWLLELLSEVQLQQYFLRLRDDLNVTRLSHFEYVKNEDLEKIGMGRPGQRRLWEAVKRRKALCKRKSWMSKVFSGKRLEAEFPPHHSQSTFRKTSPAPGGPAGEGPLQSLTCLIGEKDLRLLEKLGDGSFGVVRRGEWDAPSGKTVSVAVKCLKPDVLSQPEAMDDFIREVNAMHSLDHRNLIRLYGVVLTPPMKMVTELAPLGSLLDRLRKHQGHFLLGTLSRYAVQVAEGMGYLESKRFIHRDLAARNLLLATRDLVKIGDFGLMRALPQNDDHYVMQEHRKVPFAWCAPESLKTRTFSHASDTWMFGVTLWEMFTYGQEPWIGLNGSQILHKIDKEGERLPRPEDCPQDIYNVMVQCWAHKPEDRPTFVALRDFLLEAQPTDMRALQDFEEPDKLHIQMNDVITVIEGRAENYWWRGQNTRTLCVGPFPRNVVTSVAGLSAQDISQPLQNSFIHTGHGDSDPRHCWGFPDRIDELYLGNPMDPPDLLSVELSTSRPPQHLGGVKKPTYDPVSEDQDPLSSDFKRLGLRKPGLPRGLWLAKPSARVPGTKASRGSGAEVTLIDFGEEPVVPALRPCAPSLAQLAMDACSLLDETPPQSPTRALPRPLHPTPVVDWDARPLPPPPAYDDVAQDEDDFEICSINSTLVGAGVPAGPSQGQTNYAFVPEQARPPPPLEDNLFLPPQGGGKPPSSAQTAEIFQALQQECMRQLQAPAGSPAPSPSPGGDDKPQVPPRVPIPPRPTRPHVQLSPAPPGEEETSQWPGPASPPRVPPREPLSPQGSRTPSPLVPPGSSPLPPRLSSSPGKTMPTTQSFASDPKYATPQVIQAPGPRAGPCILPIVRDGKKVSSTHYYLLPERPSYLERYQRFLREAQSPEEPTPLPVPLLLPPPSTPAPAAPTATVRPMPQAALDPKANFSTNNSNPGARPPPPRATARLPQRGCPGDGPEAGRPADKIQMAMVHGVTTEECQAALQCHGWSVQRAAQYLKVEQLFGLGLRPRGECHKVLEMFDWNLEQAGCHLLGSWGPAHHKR
The following applies: TNK2; 1 uM; read-out: Percent Control (%). The method in brief:
as §1

In assay [8] the target is T8, scanMAX Kinase assay panel (Homo sapiens, UniProt P11362).
T8 construct: purchased DiscoverX
The following applies: FGFR1; 1 uM; read-out: Percent Control (%). The method in brief:
as §1

The target of assay [9] is T9, scanMAX Kinase assay panel (Homo sapiens, UniProt Q6ZN16).
T9 construct: purchased DiscoverX
T9 sequence (Q6ZN16 1-1313): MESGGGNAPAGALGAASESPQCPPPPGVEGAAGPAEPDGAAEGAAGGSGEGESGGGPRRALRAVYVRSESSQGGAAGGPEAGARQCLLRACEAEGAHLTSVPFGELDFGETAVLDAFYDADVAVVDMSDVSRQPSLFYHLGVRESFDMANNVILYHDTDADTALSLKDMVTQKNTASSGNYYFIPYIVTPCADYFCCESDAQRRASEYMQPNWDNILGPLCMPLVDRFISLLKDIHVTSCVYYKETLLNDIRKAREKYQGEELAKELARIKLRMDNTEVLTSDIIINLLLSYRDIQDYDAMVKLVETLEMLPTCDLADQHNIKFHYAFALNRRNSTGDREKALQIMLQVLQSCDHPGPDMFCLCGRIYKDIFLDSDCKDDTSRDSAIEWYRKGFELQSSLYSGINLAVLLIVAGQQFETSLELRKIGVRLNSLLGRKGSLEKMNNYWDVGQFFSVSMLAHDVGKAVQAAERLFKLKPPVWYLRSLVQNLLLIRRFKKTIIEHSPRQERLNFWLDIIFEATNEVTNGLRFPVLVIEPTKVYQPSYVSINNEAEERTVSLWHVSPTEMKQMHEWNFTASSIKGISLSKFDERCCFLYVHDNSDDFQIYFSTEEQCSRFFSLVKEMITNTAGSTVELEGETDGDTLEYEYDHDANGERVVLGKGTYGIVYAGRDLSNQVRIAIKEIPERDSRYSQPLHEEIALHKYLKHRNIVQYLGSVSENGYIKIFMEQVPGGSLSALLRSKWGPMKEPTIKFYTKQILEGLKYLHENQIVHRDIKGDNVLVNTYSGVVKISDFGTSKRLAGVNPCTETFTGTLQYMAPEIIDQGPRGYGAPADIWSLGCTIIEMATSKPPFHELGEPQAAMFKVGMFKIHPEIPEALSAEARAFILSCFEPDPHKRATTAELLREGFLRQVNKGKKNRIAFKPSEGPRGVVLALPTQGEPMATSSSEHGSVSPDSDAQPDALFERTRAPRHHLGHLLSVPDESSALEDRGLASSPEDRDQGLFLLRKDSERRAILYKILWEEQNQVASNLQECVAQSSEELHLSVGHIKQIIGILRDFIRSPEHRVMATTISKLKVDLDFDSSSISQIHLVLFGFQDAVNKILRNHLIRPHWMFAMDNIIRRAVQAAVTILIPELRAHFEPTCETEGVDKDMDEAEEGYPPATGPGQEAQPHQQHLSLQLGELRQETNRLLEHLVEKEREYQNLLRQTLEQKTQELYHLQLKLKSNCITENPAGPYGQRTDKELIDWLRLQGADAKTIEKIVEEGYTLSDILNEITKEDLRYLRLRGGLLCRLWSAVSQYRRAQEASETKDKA
The note with it: MAP3K15; 1 uM; read-out: Percent Control (%). The method in brief:
as §1

Turning to `Cc1ccc(C(=O)Nc2ccc(CN3CCN(C)CC3)c(C(F)(F)F)c2)cc1C#Cc1cnc2c(Nc3cnn(C)c3)cccn12` [Example 1, 4-methyl-3-((8-((1-methyl-1H-pyrazol-4-yl)amino)imidazo[1,2-a]pyridin-3-yl)ethynyl)-N-(4-((4-methylpiperazin-1-yl)methyl)-3-(trifluoromethyl)phenyl)benzamide], the remaining binding at 1 µM in assay [1] is 90%; in assay [2], 100%; in assay [3], 2%; in [4] it was 47%; in [5] (ABL1 (H396P)-nonphosphorylated), 1%; in assay [5] (ABL1 (H396P)-phosphorylated) it was 0%. The remaining binding at 1 µM turned out to be 89% in assay [6], 2% in [7], 0% in [8] and 72% in [9].
With `Cc1cn(-c2cc(NC(=O)c3ccc(C)c(C#Cc4cnc5c(Nc6cnn(C)c6)cccn45)c3)cc(C(F)(F)F)c2)cn1` [Example 12, 4-methyl-N-(3-(4-methyl-1H-imidazol-1-yl)-5-(trifluoromethyl)phenyl)-3-((8-((1-methyl-1H-pyrazol-4-yl)amino)imidazo[1,2-a]pyridin-3-yl)ethynyl)benzamide], the remaining binding at 1 µM in assay [1] was determined as 95%; in assay [2], 100%; in assay [3], 26%; in [4] it was 95%; in [5] (ABL1 (H396P)-nonphosphorylated) it was 0%; in assay [5] (ABL1 (H396P)-phosphorylated), 10%. Further, the remaining binding at 1 µM in assay [6] worked out at 95%; in assay [7] it was 28%; in assay [8], 6%; in assay [9] it was 100%.
As for `Cc1ccc(NC(=O)C2(C(=O)Nc3ccc(F)cc3)CC2)cc1C#Cc1cnc2c(Nc3cnn(C(C)C)c3)cccn12` [Example 78], the remaining binding at 1 µM in assay [1] stood at 100%; in assay [2] it was 100%; in assay [3], 27%; in assay [4], 93%; in assay [5] (ABL1 (H396P)-nonphosphorylated), 4%; in assay [5] (ABL1 (H396P)-phosphorylated) it was 64%. In addition, the remaining binding at 1 µM turned out to be 100% in assay [6], 100% in assay [7], 100% in assay [8] and 98% in assay [9].
